According to patent US20150087627A1, “COMBINATION OF KINASE INHIBITORS AND USES THEREOF” (Intellikine LLC, priority 2011, published 2015):

Columns and labels:
Type in all cases: biochemical
[1] = biological target: T1, mTOR (Homo sapiens, UniProt P42345); experiment: mTOR kinase inhibition assay (radiometric or LanthaScreen TR-FRET); settings: read-out: mTORC IC50
T1 construct: purchased Invitrogen
Procedure: The cross-activity or lack thereof of one or more compounds of the present invention against mTor can be measured according to any procedures known in the art or methods disclosed below.
The compounds described herein can be tested against recombinant mTOR (Invitrogen) in an assay containing 50 mM HEPES, pH 7.5, 1 mM EGTA, 10 mM MgCl2, 2.5 mM, 0.01% Tween, 10 μM ATP (2.5 μCi of μ-32P-ATP), and 3 μg/mL BSA. Rat recombinant PHAS-1/4EBP1 (Calbiochem; 2 mg/mL) is used as a substrate. Reactions are terminated by spotting onto nitrocellulose, which is washed with 1M NaCl/1% phosphoric acid (approximately 6 times, 5-10 minutes each). Sheets are dried and the transferred radioactivity quantitated by phosphorimaging.
For instance, one can use Invitrogen's LanthaScreen™ Kinase assay to test the inhibitors of mTOR disclosed herein. This assay is a time resolved FRET platform that measures the phosphorylation of GFP labeled 4EBP1 by mTOR kinase. The kinase reaction is performed in a white 384 well microtiter plate. The total reaction volume is 20 ul per well and the reaction buffer composition is 50 mM HEPES pH7.5, 0.01% Polysorbate 20, 1 mM EGTA, 10 mM MnCl2, and 2 mM DTT. In the first step, each well receives 2 ul of test compound in 20% dimethylsulphoxide resulting in a 2% DMSO final concentration. […] The plate is sealed and incubated for 1 hour at room temperature. […] The plate is sealed, incubated for 1 hour at room temperature, and then read on a plate reader set up for LanthaScreen™ TR-FRET. Data is analyzed and IC50s are generated using GraphPad Prism 5.

[2] = biological target: T2, PI3K α (p110α/p85α) (Homo sapiens, UniProt P42336); experiment: PI 3-Kinase (human) HTRF assay, PI3K α; settings: read-out: PI3K α IC50
T2 construct: purchased Upstate / Millipore Corporation
Procedure: (§1) Briefly, the assay is a time resolved FRET assay that indirectly measures PIP3 product formed by the activity of a PI3-K. The kinase reaction is performed in a microtiter plate (e.g., a 384 well microtiter plate). The total reaction volume is approximately 20 ul per well. In the first step, each well receives 2 ul of test compound in 20% dimethylsulphoxide resulting in a 2% DMSO final concentration. […] The plate is sealed and incubated for 15 minutes at room temperature. […] The plate is sealed and incubated for 1 hour at room temperature. The reaction is stopped by adding 5 ul of Stop Solution per well and then 5 ul of Detection Mix is added per well. The plate is sealed, incubated for 1 hour at room temperature, and then read on an appropriate plate reader. Data is analyzed and IC50s are generated using GraphPad Prism 5.

[3] = biological target: T3, PI3K β (p110β/p85α) (Homo sapiens, UniProt P42338); experiment: PI 3-Kinase (human) HTRF assay, PI3K β; settings: read-out: PI3K β IC50
T3 construct: purchased Upstate / Millipore Corporation

[4] = biological target: T4, PI3K γ (p110γ) (Homo sapiens, UniProt P48736); experiment: PI 3-Kinase (human) HTRF assay, PI3K γ; settings: read-out: PI3K γ IC50
T4 construct: purchased Upstate / Millipore Corporation
T4 sequence (P48736 whole entry): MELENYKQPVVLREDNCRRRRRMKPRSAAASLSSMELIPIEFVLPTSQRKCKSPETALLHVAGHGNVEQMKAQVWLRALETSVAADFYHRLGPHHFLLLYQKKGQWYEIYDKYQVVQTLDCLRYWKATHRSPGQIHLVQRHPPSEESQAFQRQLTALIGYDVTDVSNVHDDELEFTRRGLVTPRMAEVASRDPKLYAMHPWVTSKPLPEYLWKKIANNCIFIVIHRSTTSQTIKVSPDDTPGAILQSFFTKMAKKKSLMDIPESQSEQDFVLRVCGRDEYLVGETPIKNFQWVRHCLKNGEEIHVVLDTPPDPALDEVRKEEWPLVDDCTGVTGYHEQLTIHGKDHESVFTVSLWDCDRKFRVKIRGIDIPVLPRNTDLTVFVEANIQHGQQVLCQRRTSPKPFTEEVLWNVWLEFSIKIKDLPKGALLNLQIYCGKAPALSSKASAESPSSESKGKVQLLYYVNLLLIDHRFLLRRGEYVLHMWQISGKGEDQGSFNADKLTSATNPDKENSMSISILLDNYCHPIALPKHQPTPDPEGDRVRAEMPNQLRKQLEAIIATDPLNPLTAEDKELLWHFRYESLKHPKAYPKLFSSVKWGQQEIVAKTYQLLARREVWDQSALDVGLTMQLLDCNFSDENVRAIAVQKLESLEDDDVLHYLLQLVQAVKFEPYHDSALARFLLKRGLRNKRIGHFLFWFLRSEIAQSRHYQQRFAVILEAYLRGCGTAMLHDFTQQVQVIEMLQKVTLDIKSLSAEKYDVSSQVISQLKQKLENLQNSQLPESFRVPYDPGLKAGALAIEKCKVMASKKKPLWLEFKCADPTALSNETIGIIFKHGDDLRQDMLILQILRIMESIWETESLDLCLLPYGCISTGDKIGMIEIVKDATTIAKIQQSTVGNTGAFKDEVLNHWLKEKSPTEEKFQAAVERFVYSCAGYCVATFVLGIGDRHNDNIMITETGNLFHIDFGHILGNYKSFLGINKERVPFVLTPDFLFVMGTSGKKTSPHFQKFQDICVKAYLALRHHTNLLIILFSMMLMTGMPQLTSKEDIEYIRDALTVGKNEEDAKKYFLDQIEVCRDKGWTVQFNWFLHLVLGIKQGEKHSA
Procedure: as §1

[5] = biological target: T5, PI3K δ (Homo sapiens, UniProt O00329); experiment: PI 3-Kinase (human) HTRF assay, PI3K δ; settings: read-out: PI3K δ IC50
T5 construct: purchased Upstate / Millipore Corporation
T5 sequence (O00329 whole entry): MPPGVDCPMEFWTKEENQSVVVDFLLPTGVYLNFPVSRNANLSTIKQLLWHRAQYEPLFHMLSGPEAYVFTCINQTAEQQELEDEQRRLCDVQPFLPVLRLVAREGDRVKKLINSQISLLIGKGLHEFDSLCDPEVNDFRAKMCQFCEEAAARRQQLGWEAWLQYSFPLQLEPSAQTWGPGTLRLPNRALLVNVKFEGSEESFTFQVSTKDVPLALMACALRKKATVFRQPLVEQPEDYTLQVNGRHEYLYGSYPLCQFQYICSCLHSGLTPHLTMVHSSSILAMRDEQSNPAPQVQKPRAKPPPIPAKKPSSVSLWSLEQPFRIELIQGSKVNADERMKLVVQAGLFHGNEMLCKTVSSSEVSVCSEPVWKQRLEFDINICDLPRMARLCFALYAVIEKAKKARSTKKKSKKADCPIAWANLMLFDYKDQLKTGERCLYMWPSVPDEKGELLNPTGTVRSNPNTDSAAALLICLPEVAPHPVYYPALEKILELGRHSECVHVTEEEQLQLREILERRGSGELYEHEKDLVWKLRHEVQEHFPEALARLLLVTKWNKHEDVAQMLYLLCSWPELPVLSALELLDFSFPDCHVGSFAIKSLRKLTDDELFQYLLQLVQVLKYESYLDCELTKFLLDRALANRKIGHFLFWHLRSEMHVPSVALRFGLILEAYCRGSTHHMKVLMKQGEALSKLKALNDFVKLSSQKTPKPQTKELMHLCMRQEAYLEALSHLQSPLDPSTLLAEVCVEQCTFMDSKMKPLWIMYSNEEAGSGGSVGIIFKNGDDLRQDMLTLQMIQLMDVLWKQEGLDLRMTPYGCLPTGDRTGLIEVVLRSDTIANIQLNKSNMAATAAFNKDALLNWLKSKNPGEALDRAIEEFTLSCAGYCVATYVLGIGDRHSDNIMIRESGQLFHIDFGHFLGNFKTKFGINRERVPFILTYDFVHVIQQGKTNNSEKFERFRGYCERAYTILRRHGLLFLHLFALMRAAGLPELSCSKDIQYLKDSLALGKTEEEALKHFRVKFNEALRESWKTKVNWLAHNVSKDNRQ
T5 sequence (P27986 whole entry partner): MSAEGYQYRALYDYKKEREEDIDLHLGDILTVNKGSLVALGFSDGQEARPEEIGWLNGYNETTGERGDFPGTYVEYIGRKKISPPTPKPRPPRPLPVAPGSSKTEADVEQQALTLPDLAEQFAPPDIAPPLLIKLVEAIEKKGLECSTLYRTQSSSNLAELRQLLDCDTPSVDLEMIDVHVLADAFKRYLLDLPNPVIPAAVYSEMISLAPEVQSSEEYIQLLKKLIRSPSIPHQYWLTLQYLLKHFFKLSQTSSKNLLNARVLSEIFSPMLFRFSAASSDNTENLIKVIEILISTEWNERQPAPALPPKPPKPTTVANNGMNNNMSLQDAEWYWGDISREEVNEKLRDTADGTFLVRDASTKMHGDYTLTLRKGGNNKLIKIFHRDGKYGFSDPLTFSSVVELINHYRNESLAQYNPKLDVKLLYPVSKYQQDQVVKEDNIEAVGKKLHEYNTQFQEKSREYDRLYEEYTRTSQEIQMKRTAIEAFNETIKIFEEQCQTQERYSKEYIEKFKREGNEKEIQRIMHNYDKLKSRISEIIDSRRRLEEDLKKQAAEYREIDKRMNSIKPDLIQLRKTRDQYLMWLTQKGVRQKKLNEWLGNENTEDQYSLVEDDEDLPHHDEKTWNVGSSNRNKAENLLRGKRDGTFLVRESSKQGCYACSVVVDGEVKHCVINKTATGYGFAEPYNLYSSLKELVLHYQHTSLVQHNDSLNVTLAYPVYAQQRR

T1 sequence (P42345 1360-2549 limits assumed): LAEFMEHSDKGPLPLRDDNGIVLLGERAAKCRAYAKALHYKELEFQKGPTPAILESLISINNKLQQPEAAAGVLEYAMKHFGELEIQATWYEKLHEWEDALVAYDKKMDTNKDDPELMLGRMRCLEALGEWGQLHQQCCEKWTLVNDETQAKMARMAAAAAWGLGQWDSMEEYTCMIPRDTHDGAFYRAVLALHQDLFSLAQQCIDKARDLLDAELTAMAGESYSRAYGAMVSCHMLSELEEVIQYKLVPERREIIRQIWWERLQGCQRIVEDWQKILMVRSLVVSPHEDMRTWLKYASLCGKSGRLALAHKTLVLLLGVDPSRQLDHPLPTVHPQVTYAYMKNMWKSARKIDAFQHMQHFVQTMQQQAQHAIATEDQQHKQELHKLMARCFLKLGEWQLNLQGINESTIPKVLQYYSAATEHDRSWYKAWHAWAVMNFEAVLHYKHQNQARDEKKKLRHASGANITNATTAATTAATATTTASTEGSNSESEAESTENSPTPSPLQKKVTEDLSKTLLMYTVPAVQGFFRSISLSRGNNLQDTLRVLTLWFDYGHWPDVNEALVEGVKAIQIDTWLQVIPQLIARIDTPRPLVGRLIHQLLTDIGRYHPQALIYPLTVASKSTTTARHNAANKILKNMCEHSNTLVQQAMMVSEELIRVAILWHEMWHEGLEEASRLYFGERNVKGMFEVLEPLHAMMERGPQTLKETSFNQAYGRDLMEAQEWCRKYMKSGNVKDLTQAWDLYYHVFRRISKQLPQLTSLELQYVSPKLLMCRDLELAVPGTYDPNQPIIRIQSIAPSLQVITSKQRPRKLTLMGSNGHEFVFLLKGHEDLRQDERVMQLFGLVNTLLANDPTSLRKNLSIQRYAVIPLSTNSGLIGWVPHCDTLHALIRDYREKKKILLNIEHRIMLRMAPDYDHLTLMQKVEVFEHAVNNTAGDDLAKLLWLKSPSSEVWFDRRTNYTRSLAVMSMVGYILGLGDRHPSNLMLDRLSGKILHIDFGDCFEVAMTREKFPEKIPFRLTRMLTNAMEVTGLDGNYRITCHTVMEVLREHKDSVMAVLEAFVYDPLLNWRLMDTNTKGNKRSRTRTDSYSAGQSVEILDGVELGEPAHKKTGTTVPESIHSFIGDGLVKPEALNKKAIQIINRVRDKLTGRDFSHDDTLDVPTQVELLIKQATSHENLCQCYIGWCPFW

Row | Structure (SMILES) | IC50 [1] [µM] | IC50 [2] [µM] | IC50 [3] [µM] | IC50 [4] [µM] | IC50 [5] [µM]
1 | Nc1nc2cc(-c3ccc4ncc(=O)[nH]c4c3)ccc2o1 [Compound 72] | < 1 | < 0.1 | < 1 | < 0.1 | > 10
2 | CC(C)N1CCC(n2cnc3ccc(-c4ccc5oc(N)nc5c4)cc3c2=O)CC1 [Compound 74] | < 10 | < 0.1 | < 10 | < 10 | > 10
3 | Nc1nc2cc(-c3ccc4ncc(-c5cccnc5)nc4c3)ccc2o1 [Compound 76] | < 10 | < 0.1 | > 10 | < 1 | > 10
4 | N#Cc1cnc2ccc(-c3ccc4oc(N)nc4c3)cc2c1 [Compound 93] | < 10 | < 1 | > 10 | < 1 | > 10
5 | CCOC(=O)N1CCN(c2cnc3ccc(-c4ccc5oc(N)nc5c4)cc3n2)CC1 [Compound 119] | < 10 | < 0.1 | < 10 | < 10 | < 10
6 | Nc1nc2cc(-c3ccc4ncc(N5CCN(C(=O)[C@@H]6CCCN6)CC5)nc4c3)ccc2o1 [Compound 121] | > 10 | < 0.1 | < 0.1 | < 0.1 | < 0.1
7 | CS(=O)(=O)N1CCN(Cc2cc3nc(-c4ccc5oc(N)nc5c4)nc(N4CCOCC4)c3s2)CC1 [Compound 129] | < 1 | < 0.1 | < 1 | < 0.1 | < 1
8 | Nc1nc2cc(-c3ccc4ncc(NCCN5CCOCC5)nc4c3)ccc2o1 [Compound 133] | > 10 | < 0.1 | < 1 | < 1 | < 1
9 | Nc1nc2cc(-c3ccc4ncc(N5CCNC(=O)C5)nc4c3)ccc2o1 [Compound 135] | > 10 | < 0.1 | < 1 | < 1 | > 10
10 | CN(C)CC(=O)N1CCN(c2cnc3ccc(-c4ccc5oc(N)nc5c4)cc3n2)CC1 [Compound 139] | > 10 | < 0.1 | < 1 | < 1 | < 1
11 | CN1CC(C(=O)N2CCN(c3cnc4ccc(-c5ccc6oc(N)nc6c5)cc4n3)CC2)C1 [Compound 156] | > 10 | < 0.1 | < 1 | < 1 | < 1
12 | Nc1nc2cc(-c3ccc4ncc(N5CC(C(=O)N6CCOCC6)C5)nc4c3)ccc2o1 [Compound 169] | < 10 | < 0.1 | < 1 | < 1 | < 1
13 | CN1CCN(C(=O)C2CN(c3cnc4ccc(-c5ccc6oc(N)nc6c5)cc4n3)C2)CC1 [Compound 170] | < 10 | < 0.1 | < 1 | < 10 | < 1
14 | Nc1nc2cc(-c3ccc4ncc(N5CCC(N6CCOCC6)CC5)nc4c3)ccc2o1 [Compound 171] | > 10 | < 0.1 | < 1 | < 1 | < 1
15 | Nc1ncc(-c2ccc3oc(N)nc3c2)cn1 [Compound 233] | > 10 | > 10 | > 10 | < 10 | > 10
16 | CC(=O)Nc1cn2cc(-c3ccc4oc(N)nc4c3)ccc2n1 [Compound 234] | < 1 | < 0.1 | < 1 | < 0.1 | < 0.1
17 | CC(=O)Nc1ncc(-c2ccc3oc(N)nc3c2)s1 [Compound 235] | < 10 | < 10 | > 10 | < 10 | < 10
18 | Nc1nc2cc(-c3ccc4ncc(N5CC[C@H](O)C5)nc4c3)ccc2o1 [Compound 262] | < 10 | < 0.1 | < 1 | < 1 | > 10
19 | C[C@@H]1CN(C(=O)C2CN(c3cnc4ccc(-c5ccc6oc(N)nc6c5)cc4n3)C2)CCN1 [Compound 267] | < 10 | < 0.1 | < 10 | < 1 | < 1
20 | Nc1nc2cc(-c3ccc4ncc(N5CC(C(=O)N6CCN(C7CC7)CC6)C5)nc4c3)ccc2o1 [Compound 276] | < 10 | < 0.1 | < 10 | < 1 | < 1
21 | CN1CCN(c2cnc3ccc(-c4ccc5oc(N)nc5c4)cc3n2)CC1=O [Compound 277] | < 10 | < 0.1 | < 1 | < 1 | < 10
22 | Nc1nc2cc(-c3ccc4ncc(N5CCN(C(=O)[C@@H](N)CO)CC5)nc4c3)ccc2o1 [Compound 298] | < 10 | < 0.1 | < 1 | < 10 | < 10

Row | Structure (SMILES) | IC50 [1] [µM] | IC50 [2] [µM] | IC50 [3] [µM] | IC50 [4] [µM] | IC50 [5] [µM]
23 | CN1CCN(C2CN(C(=O)c3cnc4ccc(-c5ccc6oc(N)nc6c5)cn34)C2)CC1 [Compound 303] | < 10 | < 0.1 | > 10 | > 10 | < 10
24 | Nc1nc2cc(-c3ccc4ncc(N5CC(N6CCN(C7CC7)CC6)C5)nc4c3)ccc2o1 [Compound 313] | < 10 | < 0.1 | < 10 | < 10 | < 10
25 | Nc1nc2cc(-c3ccc4ncc(N5CC(N6CC[C@@H](O)C6)C5)nc4c3)ccc2o1 [Compound 315] | < 1 | < 0.1 | < 10 | < 10 | < 10
26 | Nc1nc2cc(-c3ccc4ncc(N5CC(n6cccn6)C5)nc4c3)ccc2o1 [Compound 318] | < 1 | < 0.1 | < 10 | < 1 | > 10
27 | Cc1ccn(C2CN(c3cnc4ccc(-c5ccc6oc(N)nc6c5)cc4n3)C2)n1 [Compound 320] | > 10 | < 0.1 | < 10 | < 10 | < 10
28 | CN1CCN(C2CN(c3cnc4ccc(-c5ccc6oc(N)nc6c5)cc4n3)C2)CC1=O [Compound 323] | > 10 | < 0.1 | < 10 | < 1 | < 10
29 | CCN(CC)C1CN(c2cnc3ccc(-c4ccc5oc(N)nc5c4)cc3n2)C1 [Compound 324] | > 10 | < 0.1 | < 10 | < 1 | < 10
30 | Nc1nc2cc(-c3ccc4ncc(N5CC(N6CCNCC6)C5)nc4c3)ccc2o1 [Compound 326] | > 10 | < 0.1 | < 1 | < 1 | < 1
31 | CC(=O)N1CCN(C2CN(c3cnc4ccc(-c5ccc6oc(N)nc6c5)cc4n3)C2)CC1 [Compound 327] | > 10 | < 0.1 | < 10 | < 1 | < 1
32 | CS(=O)(=O)N1CCN(C2CN(c3cnc4ccc(-c5ccc6oc(N)nc6c5)cc4n3)C2)CC1 [Compound 328] | > 10 | < 0.1 | < 10 | < 10 | < 10
33 | CCN1CCN(C2CN(c3cnc4ccc(-c5ccc6oc(N)nc6c5)cc4n3)C2)CC1 [Compound 329] | > 10 | < 0.1 | < 1 | < 10 | < 1
34 | COC(=O)N1CCC(n2ncc3c(N4CCOCC4)nc(-c4ccc5oc(N)nc5c4)nc32)CC1 [Compound 330] | < 1 | < 1 | < 10 | > 10 | > 10
35 | CC(C)N1CCN(C2CN(c3cnc4ccc(-c5ccc6oc(N)nc6c5)cc4n3)C2)CC1 [Compound 331] | > 10 | < 0.1 | < 10 | < 10 | < 10
36 | Nc1nc2cc(-c3ccc4ncc(N5CC(N6CCN(CCO)CC6)C5)nc4c3)ccc2o1 [Compound 333] | > 10 | < 0.1 | < 10 | < 10 | < 1
37 | Nc1nc2cc(-c3ccc4ncc(N5CC(N6CCN(CC7CC7)CC6)C5)nc4c3)ccc2o1 [Compound 335] | > 10 | < 0.1 | < 10 | > 10 | < 10
38 | Nc1nc2cc(-c3ccc4ncc(N5CCC(n6ccnc6)CC5)nc4c3)ccc2o1 [Compound 345] | < 10 | < 0.1 | < 1 | < 1 | < 1
39 | Nc1nc2cc(-c3nc(N4CCOCC4)c4cnn(C5CCNCC5)c4n3)ccc2o1 [Compound 348] | < 1 | < 1 | < 0.1 | < 1 | < 10
40 | C[C@H]1CN(C2CN(c3cnc4ccc(-c5ccc6oc(N)nc6c5)cc4n3)C2)CCN1 [Compound 350] | > 10 | < 0.1 | < 10 | > 10 | < 10
41 | Cc1cc2oc(N)nc2cc1-c1ccc2ncc(N3CC(N4CCOCC4)C3)nc2c1 [Compound 353] | > 10 | < 10 | > 10 | > 10 | > 10
42 | Cc1nccn1C1CN(c2cnc3ccc(-c4ccc5oc(N)nc5c4)cc3n2)C1 [Compound 354] | < 10 | < 0.1 | < 10 | < 10 | < 10
43 | Nc1nc2cc(-c3ccc4ncc(N5CC(N6CCOCC6)C5)nc4c3)c(F)cc2o1 [Compound 373] | > 10 | < 0.1 | < 10 | < 10 | < 10
